# Test results taken from ChEMBL document CHEMBL4000236, “Nardonaphthalenones A and B from the roots and rhizomes of Nardostachys chinensis Batal” (Bioorg Med Chem Lett, 2017).
# The source made the active and inactive calls. No cut-off for these calls is given here.
# Biological target: Sodium-dependent serotonin transporter (Homo sapiens) (UniProt P31645)
# Experiment: Modulation of human SERT expressed in HEK293 cells at 0.1 uM using APP+ as substrate by fluorescence assay relative to control
# Format: cell-based
# Sequence of Sodium-dependent serotonin transporter (Homo sapiens) (P31645 whole entry, looked up): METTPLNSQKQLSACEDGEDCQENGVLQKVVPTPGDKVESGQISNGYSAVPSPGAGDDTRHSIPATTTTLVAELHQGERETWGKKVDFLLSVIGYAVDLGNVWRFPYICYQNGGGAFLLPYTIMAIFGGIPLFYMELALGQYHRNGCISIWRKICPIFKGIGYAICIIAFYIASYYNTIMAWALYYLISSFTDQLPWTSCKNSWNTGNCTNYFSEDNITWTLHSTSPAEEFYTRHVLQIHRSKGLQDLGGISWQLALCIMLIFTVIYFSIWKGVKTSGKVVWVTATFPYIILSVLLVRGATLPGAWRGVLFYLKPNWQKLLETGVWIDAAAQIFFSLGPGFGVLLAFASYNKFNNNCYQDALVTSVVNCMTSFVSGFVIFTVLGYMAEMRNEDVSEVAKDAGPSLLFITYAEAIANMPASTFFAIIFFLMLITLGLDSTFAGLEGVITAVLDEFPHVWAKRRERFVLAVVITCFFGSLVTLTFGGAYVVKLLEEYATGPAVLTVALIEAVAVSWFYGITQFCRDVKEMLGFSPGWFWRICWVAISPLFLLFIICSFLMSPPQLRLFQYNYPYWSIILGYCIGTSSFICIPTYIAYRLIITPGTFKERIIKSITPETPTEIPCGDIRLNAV
Structure (SMILES),fold change (FC),Activity
CC(=O)CC/C=C(C)/C=C/[C@H]1C(C)=CC(=O)CC1(C)C,1.06,–
CC(=O)OC[C@H]1O[C@@H](OCC2=CO[C@@H](OC(=O)CC(C)C)C3C2C[C@H](O)[C@H]3CO)[C@H](O)[C@H](O)[C@@H]1O (stereo not given in full),–,inactive
C[C@H]1CC[C@@H]2C(C(=O)O)=CO[C@@H](O[C@@H]3O[C@H](CO)[C@@H](O)[C@H](O)[C@H]3O)[C@H]21,1.05,–
CC(=O)/C=C/C1=C(C)CCCC1(C)C,0.989,–
COC1=CC(C)(C)c2cc(OC)c(C)c(OC)c2C1=O,1.07,–
COC(=O)C1=CO[C@@H](O[C@@H]2O[C@H](CO)[C@@H](O)[C@H](O)[C@H]2O)[C@H]2[C@@H](CO)CC[C@H]12,–,inactive
C/C1=C\CC[C@@H](C)CCO[C@@H]2O[C@H](CO[C@@H]3OC[C@](O)(COC1=O)[C@H]3O)[C@@H](O)[C@H](O)[C@H]2O,1.04,–
CC(=O)/C=C/C1(O)C(C)(C)CCCC1(C)O (stereo not given),0.934,–
CC1=CC(=O)CC(C)(C)[C@@H]1CC[C@@H](C)OC(=O)CC(C)C,1.03,–
COC1=CC(C)(C)c2cc(OC)c(C)cc2C1=O,0.956,–
COC(=O)C1=CO[C@@H](O[C@@H]2O[C@H](CO)[C@@H](O)[C@H](O)[C@H]2O)[C@H]2[C@@H](COC(C)=O)CC[C@H]12,0.965,–
CC(C)CC(=O)O[C@@H]1OC=C(CO[C@@H]2O[C@H](CO)[C@@H](O)[C@H](O)[C@H]2O)C2C[C@H](O)[C@@H](CO)C21 (stereo not given in full),0.975,–
CC(C)CC(=O)OCC1=CO[C@@H](OC(=O)CC(C)C)C2C1CC(=O)[C@H]2C (stereo not given in full),–,inactive

# Biological target: Sodium-dependent serotonin transporter (Homo sapiens) (UniProt P31645)
# Experiment: Modulation of human SERT expressed in HEK293 cells at 10 uM using APP+ as substrate by fluorescence assay relative to control
# Format: cell-based
Structure (SMILES),fold change (FC),Activity
CC(=O)CC/C=C(C)/C=C/[C@H]1C(C)=CC(=O)CC1(C)C,1.1,–
CC(=O)OC[C@H]1O[C@@H](OCC2=CO[C@@H](OC(=O)CC(C)C)C3C2C[C@H](O)[C@H]3CO)[C@H](O)[C@H](O)[C@@H]1O (stereo not given in full),–,inactive
C[C@H]1CC[C@@H]2C(C(=O)O)=CO[C@@H](O[C@@H]3O[C@H](CO)[C@@H](O)[C@H](O)[C@H]3O)[C@H]21,1.07,–
CC(=O)/C=C/C1=C(C)CCCC1(C)C,1.01,–
COC1=CC(C)(C)c2cc(OC)c(C)c(OC)c2C1=O,1.05,–
COC(=O)C1=CO[C@@H](O[C@@H]2O[C@H](CO)[C@@H](O)[C@H](O)[C@H]2O)[C@H]2[C@@H](CO)CC[C@H]12,–,inactive
C/C1=C\CC[C@@H](C)CCO[C@@H]2O[C@H](CO[C@@H]3OC[C@](O)(COC1=O)[C@H]3O)[C@@H](O)[C@H](O)[C@H]2O,1.06,–
CC(=O)/C=C/C1(O)C(C)(C)CCCC1(C)O (stereo not given),1.09,–
CC1=CC(=O)CC(C)(C)[C@@H]1CC[C@@H](C)OC(=O)CC(C)C,1.07,–
COC1=CC(C)(C)c2cc(OC)c(C)cc2C1=O,0.942,–
COC(=O)C1=CO[C@@H](O[C@@H]2O[C@H](CO)[C@@H](O)[C@H](O)[C@H]2O)[C@H]2[C@@H](COC(C)=O)CC[C@H]12,0.989,–
CC(C)CC(=O)O[C@@H]1OC=C(CO[C@@H]2O[C@H](CO)[C@@H](O)[C@H](O)[C@H]2O)C2C[C@H](O)[C@@H](CO)C21 (stereo not given in full),0.933,–
CC(C)CC(=O)OCC1=CO[C@@H](OC(=O)CC(C)C)C2C1CC(=O)[C@H]2C (stereo not given in full),–,inactive

# Biological target: Sodium-dependent serotonin transporter (Homo sapiens) (UniProt P31645)
# Experiment: Modulation of human SERT expressed in HEK293 cells at 1 uM using APP+ as substrate by fluorescence assay relative to control
# Format: cell-based
Structure (SMILES),fold change (FC),Activity
CC(=O)CC/C=C(C)/C=C/[C@H]1C(C)=CC(=O)CC1(C)C,1.07,–
CC(=O)OC[C@H]1O[C@@H](OCC2=CO[C@@H](OC(=O)CC(C)C)C3C2C[C@H](O)[C@H]3CO)[C@H](O)[C@H](O)[C@@H]1O (stereo not given in full),–,inactive
C[C@H]1CC[C@@H]2C(C(=O)O)=CO[C@@H](O[C@@H]3O[C@H](CO)[C@@H](O)[C@H](O)[C@H]3O)[C@H]21,1.08,–
CC(=O)/C=C/C1=C(C)CCCC1(C)C,1.07,–
COC1=CC(C)(C)c2cc(OC)c(C)c(OC)c2C1=O,1.05,–
COC(=O)C1=CO[C@@H](O[C@@H]2O[C@H](CO)[C@@H](O)[C@H](O)[C@H]2O)[C@H]2[C@@H](CO)CC[C@H]12,–,inactive
C/C1=C\CC[C@@H](C)CCO[C@@H]2O[C@H](CO[C@@H]3OC[C@](O)(COC1=O)[C@H]3O)[C@@H](O)[C@H](O)[C@H]2O,1.08,–
CC(=O)/C=C/C1(O)C(C)(C)CCCC1(C)O (stereo not given),1.07,–
CC1=CC(=O)CC(C)(C)[C@@H]1CC[C@@H](C)OC(=O)CC(C)C,1.05,–
COC1=CC(C)(C)c2cc(OC)c(C)cc2C1=O,1,–
COC(=O)C1=CO[C@@H](O[C@@H]2O[C@H](CO)[C@@H](O)[C@H](O)[C@H]2O)[C@H]2[C@@H](COC(C)=O)CC[C@H]12,1.07,–
CN1c2ccccc2C(NCCCCCCC(=O)O)c2ccc(Cl)cc2S1(=O)=O (stereo not given),1.18,–
CC(C)CC(=O)O[C@@H]1OC=C(CO[C@@H]2O[C@H](CO)[C@@H](O)[C@H](O)[C@H]2O)C2C[C@H](O)[C@@H](CO)C21 (stereo not given in full),0.981,–
CC(C)CC(=O)OCC1=CO[C@@H](OC(=O)CC(C)C)C2C1CC(=O)[C@H]2C (stereo not given in full),–,inactive
